Data: US12410178B2, “Small cationic ortho-5,15-di-heteroaryl-porphyrin derivatives and their applications in photoinactivation of microorganisms” (UNIVERSIDADE DE COIMBRA, priority 2019, dated 2025)

Key:
[1] = test system: HaCaT immortalized human keratinocyte; assay: Toxicity and phototoxicity towards human cell lines (MTT); format: cell-based
Description: (§1) Toxicity towards human cell lines was evaluated in vitro using the 3-(4,5-dimethylthiazol-2-yl)2,5-diphenyl tetrazolium bromide (MTT, from Sigma Aldrich) assay to estimate the viability of cells after appropriate treatment. After cell attachment, photosensitizer solutions in PBS at concentrations between 0 to 10 μM were added to the cell cultures and incubated for 1 h at 37° C. in the dark. After illumination with the Biotable® or after the equivalent time in control experiments, MTT dissolved at 5 mg/ml in PBS was added to each well (final concentration 0.5 mg/ml), and the microplates were further incubated for 3-4 hours. Medium were then discarded and 100 μl of methanol were added to the cultures and mixed thoroughly to dissolve the dark blue crystals of formazan. Formazan quantification was performed using an automatic microplate reader (Multiskan Go Thermo) by absorbance measurements at 570 nm. Each experiment was repeated three times. Data were expressed as mean absorbance value of six samples and standard error of the mean.
(§2) This example describes the evaluation of in vitro toxicity against HDFn neonatal human dermal fibroblast and HaCaT immortalized human keratinocyte cell lines of a cationic ortho-5,15-di-heteroaryl porphyrin with Formula (IIa). Both types of cells were grown in DMEM (BioTech) with addition of 10% fetal bovine serum (Cultilab—Campinas, SP, Brazil). Before the experiments, the cells were removed by trypsinization, washed with PBS and maintained in a humidified atmosphere at 37° C. and 5% CO2. The cells were incubated in the dark with the photosensitizer of Formula (IIa) in PBS for 30 min at concentrations up to 10 μM, and then illuminated with the Biotable® to deliver 5 J/cm^2 in the wavelength range between 400-700 nm. After exposure to light, the cells were washed with fresh medium and plates were returned to the incubator for 24 h. Cell viability was determined by a MTT assay performed 24 h after irradiation. The cells in the control experiment remained in the dark for the time of the illumination. […] Exposure to a light dose of 5 J/cm^2 led only to a 20% decrease in the viability of fibroblasts at the highest drug dose tested: 10 μM.

[2] = test system: HDFn neonatal human dermal fibroblast; assay: as above; format: cell-based
Description: as §1, §2

With `Cn1cc[n+](C)c1C1=C2C=CC3=[N+]2[Zn@]24[n]5c(ccc51)C=C1C=CC(=[N+]12)C(c1n(C)cc[n+]1C)=c1ccc([n]14)=C3` [Formula (IIa), 5,15-bis(1,3-dimethylimidazol-2-yl)porphyrinate zinc (II) diiodide] the “Dark cytotoxicity, cell viability” value ([1]; 10 μM, in the dark) was “did not show a statistically significant reduction of cell viability”, the “Survival fraction at 10 μM, Keratinocytes” value ([1]; light dose 5 J/cm^2) was 80% and the “Dark cytotoxicity, cell viability” value ([2]; 10 μM, in the dark) was “did not show a statistically significant reduction of cell viability”. The “decrease in the viability” value ([2]; 10 μM, light dose 5 J/cm^2) was 20% and the “Survival fraction at 10 μM, Fibroblast” value ([2]; light dose 5 J/cm^2) was 100%.
